Results published in the supplement of paper PMC11451515.

Columns and labels:
Assay in all cases: AUC of viability dose-response curve (% viability x log10 dose units); higher = less sensitive
Conditions in all cases: 48 h
[1] = test system: P12-Ichikawa
Method in brief: (§1)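 Medium-adapted leukemia cells in 1536-well plates, at 500 or 1000 cells/well, were incubated for 48 h at 37°C with library compounds in DMSO at 11 threefold doses from 47 μM to 0.79 nM. CellTiter-Glo One luminescence normalised per plate to DMSO and cell-free wells was fitted with a four-parameter log-logistic model over log10 doses. Area under the curve was integrated from this fit by trapezoidal rule, with curves beyond full viability scaled and failed quality-control curves removed.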

[2] = test system: NOMO1
Method in brief: as §1

[3] = test system: SEM cells
Method in brief: as §1

[4] = RPMI 5 mM glucose + 10% dialyzed FBS

Row | SMILES | AUC of viability dose-response curve ([1]; HPLM + 10% dialyzed FBS) | AUC of viability dose-response curve ([1]; RPMI 5 mM glucose + 10% FBS) | AUC of viability dose-response curve [1, 4] | AUC of viability dose-response curve ([2]; HPLM + 10% dialyzed FBS) | AUC of viability dose-response curve ([2]; RPMI 5 mM glucose + 10% FBS) | AUC of viability dose-response curve [2, 4] | AUC of viability dose-response curve ([3]; HPLM + 10% dialyzed FBS) | AUC of viability dose-response curve ([3]; RPMI 5 mM glucose + 10% FBS) | AUC of viability dose-response curve [3, 4]
1 | C[C@@H](O)[C@@H]1[C@H]2[C@@H](C)\C(=C(/N2C1=O)C(=O)OCOC(=O)C(C)(C)C)SC3CN(C3)/C4=N/CCS4 | 471 | 469 | 464 | 421 | 465 | 454 | 467 | 467 | 467
2 | COc1cc(C(C)=O)ccc1OCCCN1CCC(c2noc3cc(F)ccc23)CC1 | 470 | 472 | 471 | 468 | 468 | 464 | 468 | 446 | 455
3 | C[C@@]12O[C@@H](C[C@]1(O)CO)n1c3ccccc3c3c4c(c5c6ccccc6n2c5c31)CNC4=O | 326 | 311 | 311 | 313 | 326 | 324 | 251 | 217 | 228
4 | CC(=O)CC(C1=CC=CC=C1)C/2=C(O)/C3=CC=CC=C3OC2=O (configuration not stated) | 462 | 469 | 465 | 408 | 447 | 471 | 433 | 403 | 431
5 | COC[C@@H](NC(C)=O)C(=O)NCc1ccccc1 | 453 | 465 | 466 | 457 | 467 | 466 | 466 | 449 | 456
6 | CC1(C)OC2CC3C4CC(F)C/5=C/C(=O)/C=C\C5(C)C4C(O)CC3(C)[C@@]2(O1)C(=O)CO (some centres not stated) | 390 | 340 | 325 | 454 | 465 | 456 | 386 | 360 | 354
7 | O=C(O)c1ccc(-n2nc(-c3ccccc3O)nc2-c2ccccc2O)cc1 | 433 | 422 | 422 | 441 | 442 | 408 | 427 | 408 | 415
8 | O=C(NC[C@H](O)CN1CCc2ccccc2C1)c1cc(NC2COC2)ncn1 | 397 | 372 | 388 | – | – | – | – | – | –
9 | Cn1cc(-c2ccc3nnc(C(F)(F)c4ccc5ncccc5c4)n3n2)cn1 | 447 | 452 | 454 | 469 | 435 | 470 | 463 | 469 | 455
10 | N=C(N)NC(=O)c1nc(Cl)c(N)nc1N | 389 | 393 | 430 | 364 | 342 | 365 | 446 | 464 | 453
11 | COc1cc2nc(N3CCCN(C)CC3)nc(NC3CCN(Cc4ccccc4)CC3)c2cc1OC | 407 | 401 | 385 | 378 | 406 | 384 | 389 | 416 | 419
12 | O=C(/C=C/c1c(C(=O)[O-])[nH]c2cc(Cl)cc(Cl)c12)Nc1ccccc1 | 466 | 464 | 467 | 471 | 444 | 462 | 466 | 466 | 463
13 | CN1\C(=C(\O)C2=C(C=CS2)[S+]1([O-])=O)C(=O)NC3=CC=CC=N3 | 465 | 449 | 459 | 450 | 453 | 455 | 467 | 474 | 475
14 | C[N+]1(C)[C@@H]2C[C@@H](OC(=O)[C@H](CO)c3ccccc3)C[C@H]1[C@@H]1O[C@@H]12.[Br-] | 456 | 424 | 435 | 457 | 423 | 442 | 448 | 467 | 462
15 | CC(=O)NC(CS)C(=O)O (configuration not stated) | 369 | 354 | 359 | 376 | 352 | 377 | – | – | –
16 | c1cc(CN2CCCNCCNCCCNCC2)ccc1CN1CCCNCCNCCCNCC1 | – | – | – | – | – | – | 390 | 387 | 416
17 | NC1=NC=C(C=C1)C2=CC=C3N=CC\4=C(N(C(=O)\C=C4)C5=CC(=CC=C5)C(F)(F)F)C3=C2 | – | – | – | 191 | 214 | 194 | – | – | –
18 | CCN(CC)C(=S)SSC(=S)N(CC)CC | 366 | 363 | 362 | 375 | 365 | 361 | – | – | –
19 | COc1cc(Nc2ncc(F)c(Nc3ccc4c(n3)NC(=O)C(C)(C)O4)n2)cc(OC)c1OC | 373 | 386 | 384 | 379 | 392 | 404 | – | – | –
20 | CC(C)(C)c1cc(C=C(C#N)C#N)cc(Br)c1O | 453 | 452 | 452 | 473 | 471 | 456 | – | – | –
21 | CN1CCC(CC1)COC2=CN=C(N=C2)C3=CC(=CC=C3)CN4/N=C(\C=C/C4=O)C5=CC(=CC=C5)C#N | 472 | 465 | 464 | 468 | 464 | 471 | – | – | –
22 | C=CC1=C(C(=O)O)N2C(=O)[C@@H](NC(=O)/C(=N\O)c3csc(N)n3)[C@H]2SC1 | – | – | – | 467 | 438 | 462 | 397 | 435 | 433
